The record followed here is ChEMBL document CHEMBL5723035, “Affinity Biochemical Literature for EUbOPEN Chemogenomic Library” (2024).

Assay [1] has as its target Arginase-2, mitochondrial (Homo sapiens, UniProt P78540). Put plainly: Affinity Biochemical interaction: (competitive binding assay with radiolabelled [guanido-14C][…] as substrate) EUB0002484aCl ARG2. On the set-up: mode of action Inhibitor, recommended concentration 1 uM.
Assay [2] concerns the target T1, Nucleotide triphosphate diphosphatase NUDT15 (Homo sapiens, UniProt Q9NV35). Put plainly: Affinity Biochemical interaction: (enzyme-coupled MG (Malachite Green) assay with […]) EUB0002330a NUDT15. It is filed as functional. On the set-up: mode of action Inhibitor, recommended concentration 1 uM.
The target in assay [3] is T1, Nucleotide triphosphate diphosphatase NUDT15. Put plainly: Affinity Biochemical interaction: (enzyme-coupled MG (Malachite Green) assay with 6-thio-dGTP) EUB0002330a NUDT15. The assay is classed as functional. On the set-up: mode of action Inhibitor, recommended concentration 1 uM.
The target of assay [4] is T2, Equilibrative nucleoside transporter 1 (Homo sapiens, UniProt Q99808). In words: Affinity Biochemical interaction: (inhibition of [3H]nitrobenzylthioinosine binding to SLC29A1 in membranes) EUB0002560a SLC29A1. On the set-up: mode of action Inhibitor, recommended concentration 1 uM. The assay is classed as cell membranes.
In assay [5] the target is T2, Equilibrative nucleoside transporter 1. In words: Affinity Biochemical interaction: (radioligand binding assay, inhibition of [3H]S-(4-Nitrobenzyl)-6-thioinosine binding to target) EUB0002560a SLC29A1. On the set-up: mode of action Inhibitor, recommended concentration 1 uM.
The target of assay [6] is Adenosine kinase (Homo sapiens, UniProt P55263). In words: Affinity Biochemical interaction: (radiochemical assay, inhibition of AK activity in cell supernatants) EUB0002485aCl ADK. The assay is classed as functional, subcellular. The arrangement: mode of action Inhibitor, recommended concentration 1 uM.
Assay [7] deals with Alpha-ketoglutarate-dependent dioxygenase alkB homolog 3 (Homo sapiens, UniProt Q96Q83).
Assay [8] concerns the target T3, Breast cancer type 1 susceptibility protein (Homo sapiens, UniProt P38398). In words: Affinity Biochemical interaction: (Fluorescence polarisation assay) EUB0002518a BRCA1. The assay is classed as functional. The arrangement: mode of action Inhibitor, recommended concentration 1 uM. (Fluorescence polarisation rises when a labelled molecule tumbles more slowly, as on binding a larger partner.)

The target of assay [9] is T3, Breast cancer type 1 susceptibility protein. In words: Affinity Biochemical interaction: (ITC) EUB0002518a BRCA1. On the set-up: mode of action Inhibitor, recommended concentration 1 uM.
The target in assay [10] is Procathepsin L (Homo sapiens, UniProt P07711). Put plainly: Affinity Biochemical interaction: (enzymatic assay (fluorogenic substrate cleavage)) EUB0002529a CTSL. The assay is classed as functional. The arrangement: mode of action Inhibitor, recommended concentration 1 uM.
In assay [11] the target is T4, Lysine-specific demethylase 4A (Homo sapiens, UniProt O75164). In words: Affinity Biochemical interaction: (AlphaScreen) EUB0002543a KDM4A. The assay is classed as functional. The arrangement: mode of action Inhibitor, recommended concentration 1 uM.
Assay [12] has as its target T4, Lysine-specific demethylase 4A. In words: Affinity Biochemical interaction: (Biolayer interferometry) EUB0002543a KDM4A. On the set-up: mode of action Inhibitor, recommended concentration 1 uM. On the technique in general: BLI is a label-free optical method that tracks binding on a fibre tip over time.
Assay [13] addresses Lysine-specific demethylase 4B (Homo sapiens, UniProt O94953). Put plainly: Affinity Biochemical interaction: (AlphaScreen) EUB0002543a KDM4B. The assay is classed as functional. The arrangement: mode of action Inhibitor, recommended concentration 1 uM. In general terms: Bead proximity is the source of the signal in Alpha formats.
Assay [14] concerns the target Lysine-specific demethylase 4C (Homo sapiens, UniProt Q9H3R0). Put plainly: Affinity Biochemical interaction: (AlphaScreen) EUB0002543a KDM4C. The assay is classed as functional. On the set-up: mode of action Inhibitor, recommended concentration 1 uM.
Assay [15] addresses Synaptic vesicular amine transporter (Homo sapiens, UniProt Q05940). Put plainly: Affinity Biochemical interaction: (Inhibition of radiolabelled [3H]dopamine uptake) EUB0002590aCl SLC18A2. The arrangement: mode of action Inhibitor, recommended concentration 1 uM.
For assay [16], the target named is T5, 3',5'-cyclic-AMP phosphodiesterase 4D (Homo sapiens, UniProt Q08499). Put plainly: Affinity Biochemical interaction: ([…]) EUB0002544a PDE4D. The assay is classed as cell-free. On the set-up: mode of action Inhibitor, recommended concentration 1 uM.
Assay [17] concerns the target cGMP-dependent 3',5'-cyclic phosphodiesterase (Homo sapiens, UniProt O00408). In words: Affinity Biochemical interaction: (inhibition of enzyme activity with [3H]cGMP or [3H]cAMP as the substrate) EUB0002477a PDE2A. It is filed as functional. On the set-up: mode of action Inhibitor, recommended concentration 1 uM.
Assay [18] concerns the target T5, 3',5'-cyclic-AMP phosphodiesterase 4D. In words: Affinity Biochemical interaction: (inhibition of enzyme activity with [3H]cGMP or [3H]cAMP as the substrate) EUB0002477a PDE4D. It is filed as functional. The arrangement: mode of action Inhibitor, recommended concentration 1 uM.
For assay [19], the target named is High affinity 3',5'-cyclic-AMP phosphodiesterase 7A (Homo sapiens, UniProt Q13946). Put plainly: Affinity Biochemical interaction: (inhibition of enzyme activity with [3H]cGMP or [3H]cAMP as the substrate) EUB0002477a PDE7A. The assay is classed as functional. On the set-up: mode of action Inhibitor, recommended concentration 1 uM.
The target of assay [20] is High affinity cAMP-specific and IBMX-insensitive 3',5'-cyclic phosphodiesterase 8A (Homo sapiens, UniProt O60658). In words: Affinity Biochemical interaction: (inhibition of enzyme activity with [3H]cGMP or [3H]cAMP as the substrate) EUB0002477a PDE8A. It is filed as functional. The arrangement: mode of action Inhibitor, recommended concentration 1 uM.
The target in assay [21] is cAMP and cAMP-inhibited cGMP 3',5'-cyclic phosphodiesterase 10A (Homo sapiens, UniProt Q9Y233). In words: Affinity Biochemical interaction: (inhibition of enzyme activity with [3H]cGMP or [3H]cAMP as the substrate) EUB0002477a PDE10A. The assay is classed as functional. On the set-up: mode of action Inhibitor, recommended concentration 1 uM.

pIC50, pKd, pKi: −log10 of the molar value.

T5 sequence (Q08499 whole entry): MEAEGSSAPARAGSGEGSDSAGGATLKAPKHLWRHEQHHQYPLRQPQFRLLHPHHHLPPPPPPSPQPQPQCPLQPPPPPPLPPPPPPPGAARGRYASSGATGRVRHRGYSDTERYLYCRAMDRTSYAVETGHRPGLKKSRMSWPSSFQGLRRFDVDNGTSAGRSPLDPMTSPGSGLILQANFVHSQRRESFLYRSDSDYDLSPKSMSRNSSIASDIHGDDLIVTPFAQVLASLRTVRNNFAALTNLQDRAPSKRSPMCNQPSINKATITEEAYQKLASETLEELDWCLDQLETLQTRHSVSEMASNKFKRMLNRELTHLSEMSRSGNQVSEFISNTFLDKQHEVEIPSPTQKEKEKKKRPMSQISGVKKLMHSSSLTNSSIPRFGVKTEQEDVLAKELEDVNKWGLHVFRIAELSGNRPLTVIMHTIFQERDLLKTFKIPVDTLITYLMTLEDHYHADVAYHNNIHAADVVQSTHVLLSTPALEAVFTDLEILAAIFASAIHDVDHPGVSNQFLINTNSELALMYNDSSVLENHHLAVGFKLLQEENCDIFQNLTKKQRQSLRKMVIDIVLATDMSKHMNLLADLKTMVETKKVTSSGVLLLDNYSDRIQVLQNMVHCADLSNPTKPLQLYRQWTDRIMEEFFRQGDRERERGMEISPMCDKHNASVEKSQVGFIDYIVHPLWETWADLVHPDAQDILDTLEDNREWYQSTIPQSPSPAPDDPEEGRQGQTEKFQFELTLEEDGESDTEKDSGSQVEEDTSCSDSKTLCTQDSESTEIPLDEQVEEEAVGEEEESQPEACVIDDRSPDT
T4 sequence (O75164 whole entry): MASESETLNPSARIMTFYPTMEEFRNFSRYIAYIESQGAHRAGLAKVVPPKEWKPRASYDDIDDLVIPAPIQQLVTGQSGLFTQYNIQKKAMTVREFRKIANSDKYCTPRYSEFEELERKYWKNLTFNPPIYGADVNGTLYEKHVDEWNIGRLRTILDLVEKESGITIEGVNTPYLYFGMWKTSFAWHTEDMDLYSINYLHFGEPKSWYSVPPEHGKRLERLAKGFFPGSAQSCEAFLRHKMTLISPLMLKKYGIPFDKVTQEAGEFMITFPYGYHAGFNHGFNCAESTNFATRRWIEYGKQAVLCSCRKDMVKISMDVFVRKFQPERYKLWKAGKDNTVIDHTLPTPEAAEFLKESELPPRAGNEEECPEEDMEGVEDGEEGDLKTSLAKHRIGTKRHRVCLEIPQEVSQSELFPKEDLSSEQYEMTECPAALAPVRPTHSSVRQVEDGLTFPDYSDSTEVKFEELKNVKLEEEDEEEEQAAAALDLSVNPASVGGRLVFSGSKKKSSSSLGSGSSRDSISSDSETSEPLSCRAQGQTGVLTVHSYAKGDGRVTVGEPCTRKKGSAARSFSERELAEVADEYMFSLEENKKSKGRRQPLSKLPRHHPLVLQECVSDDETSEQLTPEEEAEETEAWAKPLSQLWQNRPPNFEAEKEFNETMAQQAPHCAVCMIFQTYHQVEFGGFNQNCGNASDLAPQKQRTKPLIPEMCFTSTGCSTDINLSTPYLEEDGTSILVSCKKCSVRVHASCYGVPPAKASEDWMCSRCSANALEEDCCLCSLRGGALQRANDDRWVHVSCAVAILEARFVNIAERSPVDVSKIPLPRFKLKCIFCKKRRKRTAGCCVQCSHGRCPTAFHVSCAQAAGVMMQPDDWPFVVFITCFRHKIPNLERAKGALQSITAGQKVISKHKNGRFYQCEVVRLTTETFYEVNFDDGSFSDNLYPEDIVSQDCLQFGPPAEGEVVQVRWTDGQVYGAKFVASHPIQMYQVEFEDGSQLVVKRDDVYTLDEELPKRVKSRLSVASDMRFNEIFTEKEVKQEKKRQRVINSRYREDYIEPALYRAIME
T3 sequence (P38398 whole entry): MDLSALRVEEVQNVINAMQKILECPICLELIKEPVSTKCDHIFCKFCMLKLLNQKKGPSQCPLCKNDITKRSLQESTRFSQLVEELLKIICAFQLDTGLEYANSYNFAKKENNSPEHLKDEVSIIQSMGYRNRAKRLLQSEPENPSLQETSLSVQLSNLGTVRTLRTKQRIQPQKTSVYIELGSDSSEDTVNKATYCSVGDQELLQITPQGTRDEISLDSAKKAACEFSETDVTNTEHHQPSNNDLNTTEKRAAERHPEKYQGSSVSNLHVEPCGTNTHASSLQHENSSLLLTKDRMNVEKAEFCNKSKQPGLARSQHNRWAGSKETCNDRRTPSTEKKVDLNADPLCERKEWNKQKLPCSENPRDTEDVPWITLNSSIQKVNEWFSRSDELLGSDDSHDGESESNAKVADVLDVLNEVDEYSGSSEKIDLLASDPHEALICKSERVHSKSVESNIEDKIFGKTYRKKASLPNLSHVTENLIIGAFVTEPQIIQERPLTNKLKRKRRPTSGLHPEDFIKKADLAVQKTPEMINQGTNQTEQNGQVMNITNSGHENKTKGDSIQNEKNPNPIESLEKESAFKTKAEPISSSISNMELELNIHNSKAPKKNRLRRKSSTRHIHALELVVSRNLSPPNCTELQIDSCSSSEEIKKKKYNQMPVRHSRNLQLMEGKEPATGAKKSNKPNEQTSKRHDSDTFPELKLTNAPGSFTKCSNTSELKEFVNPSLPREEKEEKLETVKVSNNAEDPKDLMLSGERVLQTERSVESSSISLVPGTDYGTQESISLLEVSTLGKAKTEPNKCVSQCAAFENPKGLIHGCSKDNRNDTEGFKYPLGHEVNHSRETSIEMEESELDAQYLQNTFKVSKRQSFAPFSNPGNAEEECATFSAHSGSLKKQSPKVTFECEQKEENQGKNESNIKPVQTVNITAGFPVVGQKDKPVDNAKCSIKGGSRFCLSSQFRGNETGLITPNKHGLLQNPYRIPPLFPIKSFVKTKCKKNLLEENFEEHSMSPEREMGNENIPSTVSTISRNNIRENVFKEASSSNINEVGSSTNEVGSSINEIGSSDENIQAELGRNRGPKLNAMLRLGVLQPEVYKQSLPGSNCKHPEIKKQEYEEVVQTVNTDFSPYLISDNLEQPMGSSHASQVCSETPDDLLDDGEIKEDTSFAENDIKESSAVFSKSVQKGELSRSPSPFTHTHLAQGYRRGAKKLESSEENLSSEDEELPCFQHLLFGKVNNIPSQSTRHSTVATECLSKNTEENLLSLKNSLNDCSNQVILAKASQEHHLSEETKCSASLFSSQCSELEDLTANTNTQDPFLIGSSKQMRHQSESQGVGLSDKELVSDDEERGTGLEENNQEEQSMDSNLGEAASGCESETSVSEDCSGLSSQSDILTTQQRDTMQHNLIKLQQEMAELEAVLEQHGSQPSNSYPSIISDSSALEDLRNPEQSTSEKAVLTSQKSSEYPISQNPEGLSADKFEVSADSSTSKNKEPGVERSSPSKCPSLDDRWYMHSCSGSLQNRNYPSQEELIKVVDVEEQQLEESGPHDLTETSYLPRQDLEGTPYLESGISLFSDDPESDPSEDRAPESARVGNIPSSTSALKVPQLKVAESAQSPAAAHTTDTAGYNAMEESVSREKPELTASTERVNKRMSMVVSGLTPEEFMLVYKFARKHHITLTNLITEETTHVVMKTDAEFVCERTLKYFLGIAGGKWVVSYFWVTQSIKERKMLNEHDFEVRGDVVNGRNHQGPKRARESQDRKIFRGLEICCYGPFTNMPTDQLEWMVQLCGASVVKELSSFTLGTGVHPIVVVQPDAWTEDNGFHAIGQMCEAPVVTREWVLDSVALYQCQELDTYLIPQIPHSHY
T1 sequence (Q9NV35 whole entry): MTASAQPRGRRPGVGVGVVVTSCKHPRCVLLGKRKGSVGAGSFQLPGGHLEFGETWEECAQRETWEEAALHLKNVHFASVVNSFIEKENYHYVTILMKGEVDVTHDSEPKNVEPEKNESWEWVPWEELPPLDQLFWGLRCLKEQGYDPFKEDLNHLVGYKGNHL
T2 sequence (Q99808 whole entry): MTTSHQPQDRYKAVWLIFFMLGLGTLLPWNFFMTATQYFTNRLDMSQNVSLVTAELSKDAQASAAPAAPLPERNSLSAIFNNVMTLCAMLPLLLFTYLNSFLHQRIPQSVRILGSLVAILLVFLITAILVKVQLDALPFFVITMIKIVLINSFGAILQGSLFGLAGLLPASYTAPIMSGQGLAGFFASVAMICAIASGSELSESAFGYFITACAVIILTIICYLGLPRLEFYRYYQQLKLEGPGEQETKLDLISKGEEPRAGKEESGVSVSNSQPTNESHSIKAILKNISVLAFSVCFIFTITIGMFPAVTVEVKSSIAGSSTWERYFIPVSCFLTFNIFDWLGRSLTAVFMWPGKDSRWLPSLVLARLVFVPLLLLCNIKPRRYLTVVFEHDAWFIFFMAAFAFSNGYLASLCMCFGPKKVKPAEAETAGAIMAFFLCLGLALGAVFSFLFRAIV
Chain of Synaptic vesicular amine transporter (Q05940 whole entry): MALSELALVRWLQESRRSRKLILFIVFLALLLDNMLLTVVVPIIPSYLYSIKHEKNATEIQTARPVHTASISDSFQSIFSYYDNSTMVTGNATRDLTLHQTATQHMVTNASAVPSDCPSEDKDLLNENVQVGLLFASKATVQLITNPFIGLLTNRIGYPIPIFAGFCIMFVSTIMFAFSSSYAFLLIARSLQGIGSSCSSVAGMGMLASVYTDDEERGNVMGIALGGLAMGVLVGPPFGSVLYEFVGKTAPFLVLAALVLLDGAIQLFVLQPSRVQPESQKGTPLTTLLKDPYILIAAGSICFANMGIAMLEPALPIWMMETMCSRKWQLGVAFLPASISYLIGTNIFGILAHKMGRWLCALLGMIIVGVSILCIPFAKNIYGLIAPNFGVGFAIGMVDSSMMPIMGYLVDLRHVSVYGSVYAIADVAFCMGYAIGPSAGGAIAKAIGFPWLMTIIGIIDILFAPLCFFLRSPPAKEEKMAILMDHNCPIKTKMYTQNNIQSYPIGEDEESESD

In [1], `N[C@@H](CCCCB(O)O)C(=O)O` showed a negative-log Ki (pKi) of 6.60. For the molecule `O=C(c1ccc2[nH]ccc2c1)N1CCN(S(=O)(=O)c2ccc3[nH]c(=O)oc3c2)CC1`, the figures for the pIC50 in assay [2] and in assay [3] were 7.60 and 7.24, respectively. `NC(=O)C1CN(CCCCC(c2ccc(F)cc2)c2ccc(F)cc2)CCN1CC(=O)Nc1c(Cl)cc(N)cc1Cl` (stereo unspecified) [DRAFLAZINE]: the pKi was 9.55 in [4] and 9.03 in assay [5]. As to `Nc1ncnc2nc(-c3ccc(N4CCOCC4)nc3)cc(-c3cccc(Br)c3)c12`, the pIC50 in assay [6] is 8.52. As to `Cc1ccc2[nH]c(-n3nc(C)c(Cc4ccccc4)c3O)nc2c1`, the negative-log IC50 (pIC50) in assay [7] is 6.17. Consider `O=C(CNC(=O)[C@H](COP(=O)(O)O)NC(=O)CCc1c[nH]c2ccccc12)NCCCCc1ccccc1`, for which the pIC50 in assay [8] is 6.51. In assay [9], this molecule gave a pKd of 6.52. Regarding `Cn1nc(C(C)(C)C)cc1C(=O)NC(Cc1cccc(Cl)c1)C(=O)NCC#N` (stereo unspecified), the pKi in assay [10] was 7.09. `CC(C)[C@@H]1NC(=O)[C@H](Cc2ccc(O)cc2)NC(=O)[C@@H](CC(=O)O)NC(=O)S[C@@H](C(=O)O)NC(=O)[C@H]([C@H](C)O)NC(=O)[C@H](Cc2ccc(O)cc2)NC(=O)[C@H](Cc2c[nH]c3ccccc23)NC(=O)[C@H](CCCNC(=N)N)NC(=O)[C@H](Cc2c[nH]c3ccccc23)NC(=O)[C@H](C)NC(=O)[C@H](CO)NC(=O)[C@H](CCCNC(=N)N)NC(=O)[C@H]([C@H](C)O)NC(=O)[C@H](CC(N)=O)NC(=O)[C@H](Cc2ccc(O)cc2)NC1=O`: the pIC50 in assay [11] was 7.38; in assay [13] it was 7.48; in assay [14] it was 7.41. Also, the negative logarithm of the Kd (pKd) in [12] was 7.53. `COc1ccc(CC[C@H]2CCC[C@@H](CCc3ccc(OC)cc3)N2C[C@@H](O)CO)cc1` showed a pKi in assay [15] of 7.54. The molecule `C[C@@H](Oc1ccc(CNC(=O)c2cccnc2Oc2ccc3c(c2)OCO3)c(F)c1)C(=O)O` had a pIC50 in assay [16] of 7.43. For the molecule `C[C@H](Nc1nc2c(cnn2C2CCCC2)c(=O)[nH]1)c1ccc(Cl)cc1`, the pIC50 in assay [17] was 8.62; in [18], 8.89; in assay [19], 8.60; in assay [20] it was 9.00; in assay [21] it was 8.64.

The pKi is −log10 of the Ki, conventionally taken in molar units. A low value points to a large Ki. For orientation: pIC50 means the negative decadic logarithm of the IC50, by convention in mol/L. In general, pKd refers to the negative decadic logarithm of the Kd, by convention in mol/L. A lower pKd goes with a high Kd.
